Results taken from US10973834B2, “EP4 inhibitors and use thereof” (Arrys Therapeutics, Inc., priority 2018, dated 2021).

How the values were obtained:
[1] = system: CT-26 mouse colon adenocarcinoma; test: Antitumor activity of Compound B alone and with anti-PD-1 in the CT-26 model; assay type: in vivo, BALB/c mice
Procedure: (§1) The antitumor activity of Compound B as a single agent and combined with a mouse anti-PD-1 antibody was evaluated in the CT-26 mouse colon adenocarcinoma model grown in BALB/c mice. Mice were inoculated subcutaneously in the right flank with 5×10^5 tumor cells. When tumors reached an average size of 71 mm^3 (6 days after tumor cell inoculation) dosing was initiated. The dosing regimens in the 8 separate cohorts comprising 10 mice each are as follows: […]

CT26 tumor cells = test: CT26 re-inoculation of complete responders versus tumor-naive mice; assay type: in vivo; conditions: complete responders compared with 6 tumor-naive mice
Description: CT26 tumor cells were inoculated into 6 tumor-naive mice or complete responders of CT26 tumor-bearing mice previously treated with Compound B and anti-PD-1 alone or in combination.

[2] = system: CT-26 mouse colon adenocarcinoma; test: Antitumor activity of Compound B alone and with anti-PD1 in the CT-26 model, additional experiment; assay type: in vivo, BALB/c mice; conditions: CT-26 tumors; Compound B 15 mg/kg BID po; anti-PD1 10 mg/kg ip BIW; n=7/group; FIG. 5
Procedure: as §1, with “mouse anti-PD1” for “mouse anti-PD-1”, “BALB/c mice in an additional experiment.” for “BALB/c mice.”, “of 91” for “of 71”, “mm^3” for “mm^3 (6 days after tumor cell inoculation)”, “the 4” for “the 8”, “comprising 7” for “comprising 10”

CT-26 tumors = test: Immune cell composition of CT-26 tumors by flow cytometry; assay type: in vivo, BALB/c mice; conditions: after 7 days of dosing, Compound B 15 mg/kg BID, anti-PD1 10 mg/kg Q3D
Procedure: The immune cell composition of Compound B as a single agent and combined with a mouse anti-PD1 antibody was evaluated in the CT-26 mouse colon adenocarcinoma model grown in BALB/c mice. Mice were inoculated subcutaneously in the right flank with 5×10^5 tumor cells. When tumors reached an average size of 85 mm^3 dosing was initiated. The dosing regimens in the 4 separate cohorts comprising 10 mice each are listed as follows:
After dosing animals for 7 days, tumors were resected and used to prepare single cell suspensions. Live cells representing tumor and immune cells were stained with cocktails of antibodies targeting multiple immune cell markers (anti-CD45, anti-CD3, anti-CD4, anti-CD8, anti-CD25, anti-FoxP3, anti-PD-1, anti-CD11c) conjugated to different fluorescent tags. The stained cells were fixed in 4% paraformaldehyde and quantified using a multi-color flow cytometer (Fortessa). The data was analyzed with FloJo software.

4T1 mouse breast cancer [3] = test: Antitumor activity of Compound B alone and with anti-PD1 in the 4T1 model, additional experiment; assay type: in vivo, BALB/c mice; conditions: 4T1 tumors; Compound B 15 mg/kg BID po; anti-PD1 10 mg/kg ip BIW; n=7/group; FIG. 6
Procedure: The antitumor activity of Compound B as a single agent and combined with a mouse anti-PD1 antibody was evaluated in the 4T1 mouse breast cancer model grown in BALB/c mice in an additional experiment. Mice were inoculated subcutaneously in the right flank with 3×10^5 tumor cells. When tumors reached an average size of 97 mm^3 dosing was initiated. The dosing regimens in the 4 separate cohorts comprising 7 mice each are as follows: […]

4T1 mouse breast cancer [4] = test: Antitumor activity of Compound B alone and with anti-CTLA4 in the 4T1 model; assay type: in vivo, BALB/c mice; conditions: 4T1 tumors; Compound B 15 mg/kg BID; n=10/group; FIG. 3
Description: Mice were inoculated subcutaneously in the right flank with 3×10^5 tumor cells. When tumors reached an average size of 100 mm^3 (7 days after tumor cell inoculation) dosing was initiated.

[5] = 99 days after tumor inoculation

Structure (SMILES): C[C@H](NC(=O)c1cc(Cl)cnc1Oc1cccc(F)c1)c1ccc(C(=O)O)cc1 [Compound B]
- mice still alive [1, 5]: 1 out of 10
- mice tumor free [1, 5]: 1 out of 10
- tumor growth kinetics during the period of dosing ([1]; CT-26 tumors, Compound B 15 mg/kg QD and BID p.o., anti-PD-1 10 mg/kg i.p., n=10/group, FIG. 1): not notably different from the vehicle treated mice
- growth of re-inoculated CT26 in complete responders (CT26 tumor cells): decreased the growth of CT26 relative to naive mice
- tumor growth kinetics during the period of dosing [2]: less than that of the vehicle group
- percentage of dendritic cells (CD45, CD11c positive) (CT-26 tumors; FIG. 7b): increased percentage
- regulatory T cells (CD45, CD4, FoxP3, CD25 positive) (CT-26 tumors; versus vehicle, FIG. 7a): significant decrease
- tumor growth kinetics during the period of dosing (4T1 mouse breast cancer [3]): less than that of the vehicle group and anti-PD1 when dosed alone
- tumor growth kinetics during the period of dosing (4T1 mouse breast cancer [4]): decreased relative to the vehicle treated mice
